Reference: US12091656B2, “Method for generating higher order genome editing libraries” (Johann Wolfgang Goethe-Universität Frankfurt am Main, priority 2016, dated 2024)

Legend:
RPE1 cells [1] = assay: Titration of CYSLTR2 antagonists against Doxorubicin, AlamarBlue cell viability assay; type: cell-based, human; settings: 4 days
Procedure: FIG. 6: Identifying Doxorubicin resistance with an optimized 3Cs-gRNA library. A) Experimental scheme illustrating the usage of hTERT-RPE1 cells, transduced with lentiviral particles (MOI=1) and selected with 1 μM Doxorubicin for three weeks. B) NGS- and bioinformatically-based identification of Doxorubicin-resistance inducing gRNAs and their location within annotated human genomic DNA. C) The CYSLTR2 gene is a reproducible protein-coding hit for which two chemical inhibitors are commercially available. Both inhibitors are titrated versus increasing concentrations of Doxorubicin and induce resistance to Doxorubicin.
Of all remaining gRNAs, 45.6% are located in coding regions, 22.2% are in introns and 10.5% are in non-coding (RNA coding) regions (FIG. 6b). However, 21.7% of gRNAs are located in genomic regions for which no biotype could be assigned, indicating a gap of knowledge for those regions (FIG. 6b). To validate some of the findings in a CRISPR/Cas independent manner, the protein-coding hit gene CYSLTR2 was chosen for which two chemical antagonists are commercially available. The inventors titrated increasing concentrations of Doxorubicin against increasing concentrations of the two compounds (BayCysLTR2 and Bay u9773) and incubated drug exposed RPE1 cells for 4 days after which they were subject to the cell viability assays AlamarBlue.

RPE1 cells [2] = assay: Doxorubicin effect on RPE1 cell viability (unperturbed conditions); type: cell-based, human; settings: within 4 days

SMILES | strength of the reversion effect compared with the other CYSLTR2 antagonist (RPE1 cells [1]; FIG. 6c) | reversion of the cytotoxic effect of Doxorubicin (RPE1 cells [1]; increasing concentrations titrated against increasing Doxorubicin) | reduction of RPE1 cell viability (RPE1 cells [2])
CCCCC/C=C\C\C=C/C=C/C=C/[C@@H](Sc1ccc(C(=O)O)cc1)[C@@H](O)CCCC(=O)O [Bay u9773] | reproducibly stronger effect | able to revert the cytotoxic effect of Doxorubicin in a dose-dependent manner | 
COc1cccc2c1C(=O)c1c(O)c3c(c(O)c1C2=O)C[C@@](O)(C(=O)CO)C[C@@H]3O[C@H]1C[C@H](N)[C@H](O)[C@H](C)O1 [Doxorubicin] |  |  | robust and dose-dependent reduction of RPE1 cell viability
